In ChEMBL document CHEMBL1150512, “A new class of angiotensin II receptor antagonists with a novel acidic bioisostere” (Bioorg Med Chem Lett, 1995):

Experiments:
[1] = molecular target: T1, Type-1 angiotensin II receptor (Bos taurus, UniProt P25104); experiment: Displacement of [125 I]-AII (0.2 nM) from bovine adrenal cortical membrane angiotensin II (AII) receptor at 10e-7 M
T1 sequence (P25104 whole entry): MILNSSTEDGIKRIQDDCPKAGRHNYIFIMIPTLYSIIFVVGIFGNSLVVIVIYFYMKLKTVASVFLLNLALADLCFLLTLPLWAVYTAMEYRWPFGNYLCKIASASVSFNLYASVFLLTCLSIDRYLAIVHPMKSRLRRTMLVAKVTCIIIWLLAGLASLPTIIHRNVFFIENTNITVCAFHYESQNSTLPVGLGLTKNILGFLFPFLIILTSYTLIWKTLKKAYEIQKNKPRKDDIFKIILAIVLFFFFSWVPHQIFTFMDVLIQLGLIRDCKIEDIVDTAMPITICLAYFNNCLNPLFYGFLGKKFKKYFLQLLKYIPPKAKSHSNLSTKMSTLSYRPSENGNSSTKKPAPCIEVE

Rattus norvegicus [2] = experiment: Inhibitory activity against the pressor response induced by angiotensin II (AII) in conscious rats, at 1 mg/kg p.o. at 7 hr; type: functional; conditions: route oral
Rattus norvegicus [3] = experiment: Inhibitory activity against the pressor response induced by Angiotensin II (AII) in conscious rats, at 1 mg/kg p.o. at 3h; type: functional; conditions: route oral
Rattus norvegicus [4] = experiment: Inhibitory activity against the pressor response induced by Angiotensin II (AII) in conscious rats, at 1 mg/kg p.o. at 7 hr; type: functional; conditions: route oral
[5] = Percent oral bioavailability examined in rats; type: ADME, organism-based; conditions: rat, in vivo
Rattus norvegicus [6] = experiment: Dose-dependent reduction of blood pressure in spontaneously hypertensive rats administered orally (antihypertensive effect); type: functional; conditions: po
Rattus norvegicus [7] = experiment: Tested for dose-dependent inhibition of Angiotensin II (AII)-induced pressor response at more than 0.01 mg/kg, p.o.; type: functional; conditions: route oral, read-out: ID50 (the source's name)
Rattus norvegicus [8] = species on record: Rattus norvegicus; experiment: pD2 value of compound was determined; type: functional
[9] = Partition coefficient (logP); type: physicochemical; conditions: octanol/water
Rattus norvegicus [10] = experiment: Inhibitory activity against the pressor response induced by angiotensin II (AII) in conscious rats, at 1 mg/kg p.o. at 3h; type: functional; conditions: route oral

| Structure (SMILES) | IC50 [1] [nM] | inhibition in vivo at 1 mg/kg (Rattus norvegicus [3]) [%] | inhibition in vivo at 1 mg/kg (Rattus norvegicus [4]) [%] | further results |
| --- | --- | --- | --- | --- |
| CCc1nc2cccc(C(=O)O)c2n1Cc1ccc(-c2ccccc2-c2noc(O)n2)cc1 | 310 | 88 |  | inhibition in vivo at 1 mg/kg (Rattus norvegicus [2]): 67% |
| CNc1nc2cccc(C(=O)O)c2n1Cc1ccc(-c2ccccc2-c2noc(O)n2)cc1 | 260 | 14 | 13 |  |
| CCNc1nc2cccc(C(=O)O)c2n1Cc1ccc(-c2ccccc2-c2noc(O)n2)cc1 | 42 | 25 | 6 |  |
| CCCOc1nc2cccc(C(=O)O)c2n1Cc1ccc(-c2ccccc2-c2noc(O)n2)cc1 | 790 | 100 | 100 |  |
| CCSc1nc2cccc(C(=O)O)c2n1Cc1ccc(-c2ccccc2-c2noc(O)n2)cc1 | 480 | 83 | 100 |  |
| CCCCc1nc2cccc(C(=O)O)c2n1Cc1ccc(-c2ccccc2-c2noc(O)n2)cc1 | 620 | 68 | 64 |  |
| CCCSc1nc2cccc(C(=O)O)c2n1Cc1ccc(-c2ccccc2-c2noc(O)n2)cc1 | 850 | 80 | 100 |  |
| CSc1nc2cccc(C(=O)O)c2n1Cc1ccc(-c2ccccc2-c2noc(O)n2)cc1 | 390 | 100 | 100 |  |
| COc1nc2cccc(C(=O)O)c2n1Cc1ccc(-c2ccccc2-c2noc(O)n2)cc1 | 360 | 90 | 88 |  |
| CCCc1nc2cccc(C(=O)O)c2n1Cc1ccc(-c2ccccc2-c2noc(O)n2)cc1 | 420 | 100 | 88 |  |
| CCOc1nc2cccc(C(=O)O)c2n1Cc1ccc(-c2ccccc2-c2noc(=O)[nH]2)cc1 [AZILSARTAN] | 420 | 100 | 100 | bioavailability [5]: 20%; ED25 (Rattus norvegicus [6]): 0.4 mg/kg; ED50 (Rattus norvegicus [7]): 0.06 mg/kg; pD2 (Rattus norvegicus [8]): 9.93; logP [9]: 0.9 |
| CCOc1nc2cccc(C(=O)OC(C)OC(=O)OC3CCCCC3)c2n1Cc1ccc(-c2ccccc2-c2nn[nH]n2)cc1 (stereo not given) [CANDESARTAN CILEXETIL] |  |  |  | ED25 (Rattus norvegicus [6]): 0.68 mg/kg |
| CCOc1nc2cccc(C(=O)O)c2n1Cc1ccc(-c2ccccc2-c2nnn[nH]2)cc1 [CANDESARTAN] |  |  |  | inhibition in vivo at 1 mg/kg (Rattus norvegicus [10]): 100%; inhibition in vivo at 1 mg/kg (Rattus norvegicus [2]): 92%; pD2 (Rattus norvegicus [8]): 9.97; logP [9]: 0.32 |
| CCCCc1nc(Cl)c(CO)n1Cc1ccc(-c2ccccc2-c2nnn[nH]2)cc1 [LOSARTAN] |  |  |  | inhibition in vivo at 1 mg/kg (Rattus norvegicus [10]): 21%; inhibition in vivo at 1 mg/kg (Rattus norvegicus [2]): 34% |
